Experimental data as given in EP2338473A1, “Pharmaceutical dosage forms of tizanidine and administration routes thereof” (MDM S.p.A., priority 2009, dated 2011).
Where a name gives a salt, the structure may show the parent alone.

Tests used:
[1] = animal data, local administration; cited from earlier work
[2] = Preliminary pharmacokinetics of tizanidine solutions in rabbits (IN, IM, PO); format: in vivo; conditions: 3.00 mg/kg of tizanidine hydrochloride
Method: Preliminary pharmacokinetic data in rabbits at the dose of 3.00 mg/kg of tizanidine hydrochloride by intranasal (IN), intramuscular (IM), and oral route (PO) were performed to test the intranasal absorption without any enhancer.

[3] = cited from earlier work
[4] = Local tolerability of intranasal aqueous solution; format: in vivo; conditions: 45.00 mg/mL, pH 4.8
Method: The proposed formulations are calculated for a single puff of 50 µL/nostril.

[5] = pH of the tizanidine hydrochloride solutions; format: physicochemical; conditions: Tizanidine.HCl aqueous solutions, no excipients

Structure (SMILES): Clc1ccc2nsnc2c1NC1=NCCN1 [Tizanidine, 5-chloro-N-(4,5-dihydro-1H-imidazol-2-yl)-2,1,3-benzothia-diazol-4-amine]
- activity compared with clonidine [1]: equivalent activity
- bioavailability ([2]; intranasal (IN) compared with intramuscular (IM)): close to that of intramuscular route (IM)
- intranasal absorption ([2]; intranasal (IN), without any enhancer): rapidly absorbed
- absorption by oral route ([3]; extensive first-pass effect): well and rapidly absorbed
- T1/2z ([3]; oral route): 1 to 2 h
- Tmax ([3]; oral route): 1 to 2 h

Structure (SMILES): Clc1ccc2nsnc2c1NC1=NCCN1 [Tizanidine.HCl]
- tolerability by the nasal mucosa (redness or pain) [4]: tolerated by the nasal mucosa without any local side effect
- pH [5]: 4.8
